Results: publication PMC3534021, “Structure of the TPR Domain of AIP: Lack of Client Protein Interaction with the C-Terminal α-7 Helix of the TPR Domain of AIP Is Sufficient for Pituitary Adenoma Predisposition” (PLoS ONE, 2012)
Where no end group is shown, it is not given here.

Assays:
[1] = tested on: AIP; details: cited from earlier work
Description: Recently, mutations in aryl hydrocarbon receptor interacting protein (AIP), [2] have been linked to familial isolated pituitary adenomas (FIPA) [3]–[5], a condition most often characterized by young-onset growth hormone and prolactin-secreting pituitary tumors (reviewed by), which leads to acromegaly and gigantism. The human AIP gene encodes a 37 kDa protein of 330 amino acids that, based on similarities to other proteins, is predicted to have an N-terminal immunophilin-like domain [7] and a C-terminal tetratricopeptide repeat (TPR) domain. Typically, TPR domains consist of ...

[2] = target: T1, AIP TPR-domain R304Q mutant (Homo sapiens, UniProt O00170, R304Q); assay: Isothermal titration calorimetry, R304Q AIP TPR-domain; assay type: binding; details: ITC, 20 mM Tris pH 7.5, 5 mM NaCl, 30°C, peptide 350-600 µM injected into 30 µM TPR-domain
T1 construct: The TPR domain (residues 166–330) of human AIP; His tag (PreScission cleavable) (cleaved yes); made in house
T1 sequence (O00170 166-330 R304Q): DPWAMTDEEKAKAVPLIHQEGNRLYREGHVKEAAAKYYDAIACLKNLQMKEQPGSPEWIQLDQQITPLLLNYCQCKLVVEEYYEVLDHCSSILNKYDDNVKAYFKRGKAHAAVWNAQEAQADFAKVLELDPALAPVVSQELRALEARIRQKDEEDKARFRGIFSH
Protocol: (§1) The TPR domain (residues 166–330) of human AIP was expressed as a PreScission cleavable His-tagged protein from pTWO-E (pET-17b derived; personal communication, A. W. Oliver, Sussex University). The TPR domain was purified by talon-affinity chromatography (Clontech, Oxford, UK), then concentrated and desalted on a HIPrep 26/10 desalting column equilibrated in 20 mM Tris pH 7.5 containing 1 mM EDTA. The sample was then cleaved overnight with GST-tagged PreScision protease. The cleaved protein was subsequently passed through a GST column equilibrated in 20 mM Tris pH 7.5, 1 mM EDTA and 150 mM NaCl and then through a second Talon column to remove any remaining uncleaved protein. The flow through was then concentrated and subjected to superdex 75HR gel-filtration chromatography equilibrated in 20 mM Tris pH 7.5, 1 mM EDTA, 1 mM DTT and 500 mM NaCl. Pure TPR domain were concentrated and then desalted on a HIPrep 26/10 column equilibrated in 20 mM Tris pH 7.5 containing 1 mM EDTA. The protein was stored frozen at 2 mg ml^−1.
(§2) The heat of interaction was measured on an ITC200 microcalorimeter (Microcal), with a cell volume of 200 µL, under the same buffer conditions (20 mM Tris, pH 7.5, containing 5 mM NaCl) at 30°C. Twenty 1.9 µL aliquots of AIP TPR-domain at 350 µM were injected into 30 µM of human HSP90β. For peptide interactions twenty 1.9 µL aliquots of peptide ranging from 350 to 600 µM were injected into 30 µM of AIP TPR-domain. Heats of dilution were determined in a separate experiment by diluting protein or peptide into buffer, and the corrected data were fitted using a non-linear least-squares curve-fitting algorithm (Microcal Origin) with three floating variables: stoichiometry, binding constant and change in enthalpy of interaction. ATPase assays were previously described [44]–[46].

[3] = target: T2, AIP TPR-domain R304A mutant (Homo sapiens, UniProt O00170, R304A); assay: Isothermal titration calorimetry, R304A AIP TPR-domain; assay type: binding; details: ITC, 20 mM Tris pH 7.5, 5 mM NaCl, 30°C, peptide 350-600 µM injected into 30 µM TPR-domain
T2 construct: The TPR domain (residues 166–330) of human AIP; His tag (PreScission cleavable) (cleaved yes); made in house
T2 sequence (O00170 166-330 R304A): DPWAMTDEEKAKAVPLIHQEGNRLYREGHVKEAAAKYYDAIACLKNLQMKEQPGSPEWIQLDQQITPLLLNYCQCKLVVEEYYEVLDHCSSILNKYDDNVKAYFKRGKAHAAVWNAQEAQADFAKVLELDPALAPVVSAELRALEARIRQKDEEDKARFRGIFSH
Protocol: as §1, §2

[4] = target: T3, full-length human HSP90β (human, UniProt P08238 1-724); assay: ITC; twenty 1.9 µL aliquots of AIP TPR-domain at 350 µM injected into 30 µM human HSP90β; 20 mM Tris pH 7.5, 5 mM NaCl, 30°C
T3 construct: HSP90β, human, full length; also called FL-hHSP90β; intact HSP90
T3 sequence (P08238 whole entry): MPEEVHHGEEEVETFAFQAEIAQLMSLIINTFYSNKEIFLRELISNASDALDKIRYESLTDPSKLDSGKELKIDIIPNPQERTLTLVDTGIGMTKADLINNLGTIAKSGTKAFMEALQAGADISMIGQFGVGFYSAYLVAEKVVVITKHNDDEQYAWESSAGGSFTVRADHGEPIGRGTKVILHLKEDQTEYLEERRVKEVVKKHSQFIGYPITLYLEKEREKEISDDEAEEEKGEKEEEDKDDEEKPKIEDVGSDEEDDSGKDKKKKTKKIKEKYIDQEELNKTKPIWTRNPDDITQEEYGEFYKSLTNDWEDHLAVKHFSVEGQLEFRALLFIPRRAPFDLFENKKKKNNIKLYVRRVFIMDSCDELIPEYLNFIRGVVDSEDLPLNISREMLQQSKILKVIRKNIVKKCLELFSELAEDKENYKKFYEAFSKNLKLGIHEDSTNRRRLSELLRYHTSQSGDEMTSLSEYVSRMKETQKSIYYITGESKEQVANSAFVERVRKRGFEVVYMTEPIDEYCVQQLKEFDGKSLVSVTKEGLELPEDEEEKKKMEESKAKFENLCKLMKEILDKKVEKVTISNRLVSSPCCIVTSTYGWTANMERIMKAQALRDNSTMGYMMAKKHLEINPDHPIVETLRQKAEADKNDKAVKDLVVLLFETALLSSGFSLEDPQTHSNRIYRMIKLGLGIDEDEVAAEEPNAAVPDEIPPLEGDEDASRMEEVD

[5] = target: T4, TPR domain (residues 166–330) of human AIP, WT (Homo sapiens, UniProt O00170); assay: Isothermal titration calorimetry, wild-type AIP TPR-domain; assay type: binding; details: ITC; for N (stoichiometry): first value where two are printed
T4 construct: The TPR domain (residues 166–330) of human AIP; His tag (PreScission cleavable) (cleaved yes); made in house
T4 sequence (O00170 166-330): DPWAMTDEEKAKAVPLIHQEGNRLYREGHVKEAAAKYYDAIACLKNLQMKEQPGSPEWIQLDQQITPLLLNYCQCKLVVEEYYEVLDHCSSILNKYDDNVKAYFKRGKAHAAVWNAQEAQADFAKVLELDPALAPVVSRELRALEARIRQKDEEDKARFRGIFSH
Protocol: as §1, §2

[6] = target: AIP TPR-domain E192R mutant; assay: Isothermal titration calorimetry, E192R AIP TPR-domain; assay type: binding, human; details: ITC, 20 mM Tris pH 7.5, 5 mM NaCl, 30°C, 350 µM AIP TPR injected into 30 µM HSP90β
Protocol: as §1, with “Pure TPR domain were concentrated and then desalted on a HIPrep 26/10 column equilibrated in 20 mM Tris pH 7.5 containing 1 mM EDTA. The protein was stored frozen at 2 mg ml^−1.” left out
The heat of interaction was measured on an ITC200 microcalorimeter (Microcal), with a cell volume of 200 µL, under the same buffer conditions (20 mM Tris, pH 7.5, containing 5 mM NaCl) at 30°C. […] Heats of dilution were determined in a separate experiment by diluting protein or peptide into buffer, and the corrected data were fitted using a non-linear least-squares curve-fitting algorithm (Microcal Origin) with three floating variables: stoichiometry, binding constant and change in enthalpy of interaction. […]

[7] = 20 mM Tris pH 7.5, 5 mM NaCl, 30°C

Compound: C=CC[C@@H]1/C=C(\C)C[C@H](C)C[C@H](OC)[C@H]2O[C@@](O)(C(=O)C(=O)N3CCCC[C@H]3C(=O)O[C@H](/C(C)=C/[C@@H]3CC[C@@H](O)[C@H](OC)C3)[C@H](C)[C@@H](O)CC1=O)[C@H](C)C[C@@H]2OC [FK506]
- Binding to AIP [1]: does not bind

Compound: CC[C@H](C)[C@H](NC(=O)[C@@H](NC(=O)[C@@H]1CCCN1C(=O)CNC(=O)[C@H](CO)NC(=O)CN)[C@@H](C)O)C(=O)N[C@@H](CCC(=O)O)C(=O)N[C@@H](CCC(=O)O)C(=O)N[C@H](C(=O)N[C@@H](CC(=O)O)C(=O)O)C(C)C [GSGPTIEEVD]
- Kd [2]: 31.1 ± 2.6 µM
- Kd [3]: 22.8 ± 1.6 µM

Compound: CO[C@H]1C[C@@H]2CC[C@@H](C)[C@@](O)(O2)C(=O)C(=O)N2CCCC[C@H]2C(=O)O[C@H]([C@H](C)C[C@@H]2CC[C@@H](O)[C@H](OC)C2)CC(=O)[C@H](C)/C=C(\C)[C@@H](O)[C@@H](OC)C(=O)[C@H](C)C[C@H](C)/C=C/C=C/C=C/1C [rapamycin]
- Binding to AIP [1]: does not bind

Compound: AQSLAEDDVE [AQSLAEDDVE]
- Kd [2]: 22.5 ± 2.2 µM
- Kd [3]: 16.6 ± 0.5 µM

Compound: TPR domain of human AIP, E192R mutant (domain or fragment)
- Kd [4]: 11.1 µM
- dH [4]: -4.11 kcal/mol
- stoichiometry N [4]: 0.47

Compound: FL-hHSP90β: full-length human HSP90β chaperone protein
- ΔH [5, 7]: -4.554 kcal/mol
- ΔS [5, 7]: 7.29 Cal/mol/deg
- N (stoichiometry) ([5]; 20 mM Tris pH 7.5, 5 mM NaCl, 30°C, for HSP90β given as AIP:HSP90): 0.30
- N (stoichiometry) ([5]; 20 mM Tris pH 7.5, 5 mM NaCl, 30°C, for HSP90β given as AIP:HSP90, listed as HSP90β): 0.3
- Kd ([5]; 20 mM Tris pH 7.5, 5 mM NaCl, 30°C, peptide 350-600 µM injected into 30 µM AIP TPR-domain (for HSP90β: 350 µM AIP TPR into 30 µM HSP90β)): 13.3 ± 1.8 µM
- Kd [6]: 11.1 ± 1.3 µM

Compound: CSCC[C@H](NC(=O)[C@H](CCCNC(=N)N)NC(=O)[C@H](CO)NC(=O)[C@H](C)NC(=O)[C@H](CC(=O)O)NC(=O)[C@@H](N)CCC(=O)O)C(=O)N[C@@H](CCC(=O)O)C(=O)N[C@@H](CCC(=O)O)C(=O)N[C@H](C(=O)N[C@@H](CC(=O)O)C(=O)O)C(C)C [EDASRMEEVD]
- Kd ([5]; range of the two titrations as given in the text): 14.4 to 18.6 µM
- Kd [2]: 16.2 ± 1.1 µM
- Kd [3]: 15.6 ± 0.85 µM
